Assay results published in ChEMBL document CHEMBL1130954, “Design and synthesis of analogs of vitamin E: antiproliferative activity against human breast adenocarcinoma cells” (Bioorg Med Chem Lett, 1998).

tested on: MCF7; assay: Compound was tested for antiproliferative activity against human breast cancer cell line MCF-7 in MTT assay; format: functional, cell-based

Point of comparison: `Cc1c(C)c2c(c(C)c1OC(=O)[C@@H](N)CCCCN)CC[C@@](C)(CCC[C@H](C)CCC[C@H](C)CCCC(C)C)O2`, IC50 12 µM. Against it:
- Cc1c(C)c2c(c(C)c1O)CCC(C)(C(=O)O)O2 (centres undefined) [TROLOX] — 120-fold higher, 1460 µM
- Cc1c(C)c2c(c(C)c1OC(=O)[C@@H](N)CCCCN)CCC(C)(COC(=O)CCC(C)[C@H]1CC[C@H]3[C@@H]4[C@H](O)C[C@@H]5C[C@H](O)CC[C@]5(C)[C@H]4C[C@H](O)[C@]13C)O2 (some centres undefined) — 3-fold lower, 4 µM
- CC(=O)Oc1c(C)c(C)c2c(c1C)CC[C@@](C)(CCC[C@H](C)CCC[C@H](C)CCCC(C)C)O2 — higher, > 500 µM
- CCCCC(=O)OCC1(C)CCc2c(C)c(OC(=O)[C@@H](N)CCCCN)c(C)c(C)c2O1 (some centres undefined) — within 1.5-fold, 15 µM
- Cc1c(C)c2c(c(C)c1OC(=O)[C@@H](N)CCCCN)CCC(C)(CO)O2 (some centres undefined) — 16-fold higher, 194 µM
- Cc1c(C)c2c(c(C)c1O)CC[C@@](C)(CCC[C@H](C)CCC[C@H](C)CCCC(C)C)O2 [ALPHA-TOCOPHEROL] — 27-fold higher, 329 µM
- CCCCCOCC1(C)CCc2c(C)c(OC(=O)[C@@H](N)CCCCN)c(C)c(C)c2O1 (some centres undefined) — 1.8-fold higher, 22 µM
- Cc1c(C)c2c(c(C)c1OC(=O)CCC(=O)O)CC[C@@](C)(CCC[C@H](C)CCC[C@H](C)CCCC(C)C)O2 [(+)-ALPHA-TOCOPHERYL SUCCINATE] — higher, > 368 µM
